Experimental data from US8937062B2, “Compositions and methods for treating, reducing, ameliorating, or preventing infections caused by antibacterial drug-resistant bacteria” (Bausch & Lomb Incorporated, priority 2007, dated 2015).
Values after ≈ are worked out from the molar mass of the structure shown. Read-outs that look alike come from different tables or passages of the source.

Tests used:
[1] = system: APC-resistant Haemophilus influenza.; experiment: MIC90, agar plate dilution method (NCCLS), Table 2; format: cell-based; conditions: for MIC90: Haemophilus
Procedure: (§1) The MIC90 values for this test were determined by the agar plate dilution method according to the National Committee for Clinical Laboratory Standards (“NCCLS”).

[2] = system: GM-resistant P. aeruginosa; experiment: MIC90, agar plate dilution method (NCCLS), Table 2; format: cell-based; conditions: 10 isolates; for MIC90: Pseudomonas aeruginosa
Procedure: as §1

GM-resistant S. aureus = experiment: MIC90, agar plate dilution method (NCCLS), Table 2; format: cell-based; conditions: Staphylococcus aureus, 10 isolates
Procedure: as §1

[3] = system: OFLX-resistant Enterobacteriaceae; experiment: MIC90, agar plate dilution method (NCCLS), Table 2; format: cell-based
Procedure: as §1

OFLX-resistant S. aureus = experiment: MIC90, agar plate dilution method (NCCLS), Table 2; format: cell-based; conditions: Staphylococcus aureus, 10 isolates
Procedure: as §1

[4] = system: PCG-resistant S. pneumoniae; experiment: MIC90, agar plate dilution method (NCCLS), Table 2; format: cell-based; conditions: 10 isolates; for MIC90: Streptococcus pneumoniae
Procedure: as §1

[5] = system: methicillin-resistant S. aureus; experiment: MIC90, Japanese Society of Chemotherapy guidelines (1993), Table 3; format: cell-based; conditions: Staphylococcus aureus, read-out: MIC90
Procedure: (§2) In a second test, compounds having Formulae IV and V, their racemic mixture, and OFLX were tested in vitro against S. aureus strains that are resistant to methicillin or penicillin. The test was conducted according to the guidelines of the Japanese Society of Chemotherapy (1993).

[6] = system: penicillin-resistant S. aureus; experiment: as above; format: cell-based; conditions: Staphylococcus aureus, read-out: MIC90
Procedure: as §2

[7] = system: Methicillin-Resistant S. aureus Isolates; experiment: In vitro anti-bacterial activity, fourth test, Table 5; format: cell-based, Staphylococcus aureus; conditions: Staphylococcus aureus, read-out: MIC90
Procedure: In a fourth test, the anti-bacterial activity of the compound having Formula IV was tested against some methicillin-resistant S. aureus bacteria strains and compared to the anti-bacterial activity of three commercially available antibiotics: nadifloxacin (“NDFX”), ofloxacin (“OFLX”), and sparfloxacin (“SPFX”).

[8] = system: Ofloxacin-resistant Enterobacteriaceae; experiment: organism not typed; format: cell-based
Excerpt: (§3) As disclosed above, most of these bacteria strains are also relevant to infections of the ear and upper respiratory tract.

[9] = system: Gentamicin-resistant Pseudomonas aeruginosa; experiment: In vitro anti-bacterial activity, resistant clinical isolates, fifth test, Table 6; format: cell-based; conditions: read-out: MIC90
Excerpt: as §3

[10] = system: Gentamicin-resistant Staphylococcus aureus; experiment: as above; format: cell-based; conditions: read-out: MIC90
Excerpt: as §3

[11] = system: Ofloxacin-resistant Staphylococcus aureus; experiment: as above; format: cell-based; conditions: read-out: MIC90
Excerpt: as §3

[12] = system: Penicillin-resistant Streptococcus pneumoniae; experiment: as above; format: cell-based; conditions: read-out: MIC90
Excerpt: as §3

[13] = system: S. aureus Clinical Isolates; experiment: In vitro activity against clinical isolates, sixth test, Table 7; format: cell-based; conditions: Staphylococcus aureus, 49 isolates
[14] = system: S. pneumoniae Clinical Isolates; experiment: as above; format: cell-based; conditions: 78 isolates

Question: How did the “MIC90 Range” value ([1]; APC-resistant Haemophilus influenza., 10 isolates) turn out when `CC1COc2c(N3CCN(C)CC3)c(F)cc3c(=O)c(C(=O)O)cn1c23` (stereo not drawn) [OFLX, ofloxacin] was run?
Answer: ≦0.06 μg/ml

Question: What about the MIC90 ([1]; read-out: MIC90 Geometric Mean) of the same molecule?
Answer: ≤ 0.06 µg/mL

Question: What about the MIC90 ([1]; read-out: MIC90 Value) of the same molecule?
Answer: ≤ 0.06 µg/mL

Question: What about the “MIC90 Range” value [2] of the same molecule?
Answer: 0.5 to 128 µg/mL

Question: And the MIC90 ([2]; read-out: MIC90 Geometric Mean)?
Answer: 6.5 µg/mL (≈ 18 µM)

Question: What about the MIC90 ([2]; read-out: MIC90 Value) of the same molecule?
Answer: 64 µg/mL (≈ 177 µM)

Question: What about the MIC90 (GM-resistant S. aureus; read-out: MIC90 Geometric Mean) of the same molecule?
Answer: 16 µg/mL (≈ 44.3 µM)

Question: And the MIC90 (GM-resistant S. aureus; read-out: MIC90 Value)?
Answer: > 128 µg/mL

Question: What about the “MIC90 Range” value ([3]; OFLX-resistant Enterobacteriaceae, 10 isolates) of the same molecule?
Answer: 8 to 64 µg/mL

Question: What about the MIC90 ([3]; read-out: MIC90 Geometric Mean) of the same molecule?
Answer: 21.1 µg/mL (≈ 58.4 µM)

Question: What about the MIC90 ([3]; read-out: MIC90 Value) of the same molecule?
Answer: 64 µg/mL (≈ 177 µM)

Question: What about the MIC90 (OFLX-resistant S. aureus; read-out: MIC90 Geometric Mean) of the same molecule?
Answer: 104 µg/mL (≈ 288 µM)

Question: What about the MIC90 (OFLX-resistant S. aureus; read-out: MIC90 Value) of the same molecule?
Answer: > 128 µg/mL

Question: And the “MIC90 Range” value [4]?
Answer: 1 to 2 µg/mL

Question: What about the MIC90 ([4]; read-out: MIC90 Geometric Mean) of the same molecule?
Answer: 1.52 µg/mL (≈ 4.21 µM)

Question: And the MIC90 ([4]; read-out: MIC90 Value)?
Answer: 2 µg/mL (≈ 5.53 µM)

Question: And the MIC90 ([5]; ATCC33591, S. aureus (ATCC 33591))?
Answer: 0.39 µg/mL (≈ 1.08 µM)

Question: And the MIC90 ([5]; ATCC33592, S. aureus (ATCC 33592))?
Answer: 0.2 µg/mL (≈ 0.553 µM)

Question: What about the MIC90 ([5]; ATCC33593, S. aureus (ATCC 33593)) of the same molecule?
Answer: 0.2 µg/mL (≈ 0.553 µM)

Question: And the MIC90 ([5]; S. aureus (No. 395))?
Answer: 0.39 µg/mL (≈ 1.08 µM)

Question: And the MIC90 ([5]; S. aureus (No. 415))?
Answer: 0.2 µg/mL (≈ 0.553 µM)

Question: And the MIC90 ([5]; S. aureus (No. 419))?
Answer: 0.39 µg/mL (≈ 1.08 µM)

Question: What about the MIC90 ([5]; S. aureus (No. 420)) of the same molecule?
Answer: 0.2 µg/mL (≈ 0.553 µM)

Question: And the MIC90 ([5]; S. aureus (No. 421))?
Answer: 0.39 µg/mL (≈ 1.08 µM)

Question: And the MIC90 ([6]; ATCC11632, S. aureus (ATCC 11632))?
Answer: 0.2 µg/mL (≈ 0.553 µM)

Question: And the MIC90 ([6]; ATCC13301, S. aureus (ATCC 13301))?
Answer: 0.2 µg/mL (≈ 0.553 µM)

Question: What about the MIC90 ([7]; ATCC33591, Staphylococcus aureus (ATCC 33591)) of the same molecule?
Answer: 0.05 µg/mL (≈ 0.138 µM)

Question: And the MIC90 ([7]; ATCC33592, Staphylococcus aureus (ATCC 33592))?
Answer: 0.39 µg/mL (≈ 1.08 µM)

Question: What about the MIC90 ([7]; ATCC33593, Staphylococcus aureus (ATCC 33593)) of the same molecule?
Answer: 0.2 µg/mL (≈ 0.553 µM)

Question: And the MIC90 ([7]; Staphylococcus aureus (No. 395))?
Answer: 0.2 µg/mL (≈ 0.553 µM)

Question: And the MIC90 ([7]; Staphylococcus aureus (No. 415))?
Answer: 0.78 µg/mL (≈ 2.16 µM)

Question: What about the MIC90 ([7]; Staphylococcus aureus (No. 419)) of the same molecule?
Answer: 3.13 µg/mL (≈ 8.66 µM)

Question: What about the MIC90 ([7]; Staphylococcus aureus (No. 420)) of the same molecule?
Answer: 1.56 µg/mL (≈ 4.32 µM)

Question: And the MIC90 ([7]; Staphylococcus aureus (No. 421))?
Answer: 1.56 µg/mL (≈ 4.32 µM)

Question: And the MIC90 [8]?
Answer: 64 µg/mL (≈ 177 µM)

Question: And the MIC90 [9]?
Answer: 64 µg/mL (≈ 177 µM)

Question: And the MIC90 [10]?
Answer: 128 µg/mL (≈ 354 µM)

Question: And the MIC90 [11]?
Answer: > 128 µg/mL

Question: And the MIC90 [12]?
Answer: 2 µg/mL (≈ 5.53 µM)

Question: What about the MIC90 [13] of the same molecule?
Answer: 8 µg/mL (≈ 22.1 µM)

Question: What about the “MIC90 Range” value [14] of the same molecule?
Answer: 1 to 2 µg/mL

Question: What about the MIC90 ([14]; Streptococcus pneumoniae) of the same molecule?
Answer: 1 µg/mL (≈ 2.77 µM)
